Assays:
[1] = Uterine wet weights in ovariectomized mice; type: in vivo, mouse; conditions: E2 pellets 0.01 mg/60 days vs placebo
Protocol: ERα+ MCF7 cells served as a positive control. Cells were treated as either mock transfected or transfected with scrambled control or three different siRNA targeting Esr1. […] Esr1 was first normalized to Rplp0 and then Esr1 knockdown samples were normalized to a non-targeting control. RNA was collected from both cell lines after 48 hr of siRNA transfection. […] Mouse ovary served as a positive control. […] ERα+MCF7 cells served as a positive control (FIG. 5E, left). […] Data are expressed as individual data points and represented as mean±S.E.M. Significance was calculated by Student's t test or two-way ANOVA (FIGS. 5E-5F), followed by Bonferroni's multiple correction (**p<0.0001).
Ovarlectomy and subcutaneous pellet Insertion. Ovariectomy was performed as previously described (Nelson et al., Science 2013, 342, 1094-1098). Eight days prior to tumor inoculation, 7 weeks old C57BL/6J or 5 weeks old (iBP) female mice were subjected to ovariectomy or sham surgery. Mice were anesthetized in an inhalation chamber (2% Isoflurane) and maintained in half the dose of isoflurane (1%) via nose cone throughout the surgical process. Prior to surgery, mice were administered a 5 mg/kg dose of carprofen subcutaneously. […] The mouse was then removed from anesthesia and kept in a clean cage and monitored until conscious. The mice were monitored for recovery for 10 days.

[2] = test system: WNT5A and TCF4 target genes; test: Quantitative PCR of tumor infiltrating myeloid cells from iBP tumors; type: in vivo, mouse
Protocol: All target genes were normalized to Rplp0 and then siEsr1 (FIG. 14E) or DMSO (FIG. 14F) samples were normalized to siRNA control. Data are represented as mean±S.E.M. Significance was calculated by Student's t test (FIGS. 14C-14D) (*p<0.05, **p<0.01, and ***p<0.001).
Quantitative PCR of tumor Infiltrating myeloid cells. Tumor infiltrating myeloid cells were isolated from iBP tumors using a CD11b isolation kit (catalog #18970, StemCell Technologies). RNA was isolated using RNA Aqueous Micro kit (catalog #1931, Ambion) followed by cDNA synthesis using an iScript cDNA synthesis kit (Cat #170-7691). Quantitative amplification was performed using Sybr Green (Cat #1725124, Bio-Rad) and a CFX-384 Real Time PCR detection system. Primers used are listed below in TABLE 1.

YuMM5.2 cells = test: Quantitative PCR of ER target genes in melanoma cells; type: cell-based, mouse; conditions: E2 1 nM, 16 hr
CD3+ T cells = test: T cells co-cultured with tumor infiltrating CD11b+ myeloid cells from iBP tumors; type: cell-based, mouse; conditions: myeloid cells from E2 vs placebo treated mice, 72 hr
Protocol: (§1) T cell proliferation assay and staining. CD3+ T cells were isolated from the spleens of C57BL/6J or P-mel mice with magnetic bead-based T cell isolation kit (Cat #19851, StemCell Technologies). T cells from naïve mice were stained with 5 μM CFSE (Cat #C34554, ThermoFisher Scientific) for 5 minutes in PBS+5% CFS with rapid vortexing following which the cells were washed twice with PBS. Stained T cells were then counted and plated in 96-well plates coated with anti-CD3 antibody (0.5 μg/mL, Cat #19851, ThermoFisher Scientific) anti-CD28 antibody (1 μg/mL, Cat #16-0281-86, Thermo Fisher Scientific) at desired density (250,000 T cells/50,000 CD11b or BMDM) in the presence of IL2 (50 ng/mL) (Cat #212-12, PeproTech). 72 hr after plating the cells were incubated with protein transport inhibitors brefeldin (Cat #00-4506-51, Thermo Fisher Scientific) and monensin (Cat #00-4505-51, Thermo Fisher Scientific) for 6 hr at a final concentration of 2 μM monensin and 3 μg/mL brefeldin after which they were collected and were processed for staining for flow cytometry.
These cells were then co-incubated with CD3^+ T cells isolated from the spleens of non-tumor bearing Pmel mice (Thy1^a/Cy Tg(TcraTcrb)8Rest/J) for 72 hr. iBP tumors express gp100 (Pmel) that can be processed and presented by professional antigen presenting cells to T cells that are specific to the antigen (gp100). Prior to coincubation, T cells were stained with the Carboxyfluorescein succinimidyl ester (CFSE) dye and activated in the presence of sub-optimal CD3/CD28. […] In this experiment, the phenotypic characteristics of the isolated myeloid cells were not defined, i.e., bone marrow derived vs resident macrophages.

CD4+ and CD8+ T cells = test: T cell proliferation assay and staining, direct treatment of T cells in vitro; type: cell-based, mouse; conditions: E2 (1 nM)+fulvestrant (100 nM), 3 days
Text: FIG. 17C and FIG. 17H show the percentage of CD44^+CD69^+ activated CD8^+ T cells (FIG. 17C) and CD4^+ T cells (FIG. 17H) from experiments described above. FIG. 17D and FIG. 17I show the percentage of GZMB^+ activated CD8^+ T cells (FIG. 17D) and CD4^+ T cells (FIG. 17I) from experiments described above. FIG. 17E and FIG. 17J show the percentage of IFNγ^+ activated CD8^+ T cells (FIG. 17E) and CD4^+ T cells (FIG. 17J) from experiments described above. Data are expressed as individual data points and represented as mean±S.E.M. Significance was calculated by one way ANOVA.
as §1, with “72 hr after plating the cells were incubated with protein transport inhibitors brefeldin (Cat #00-4506-51, Thermo Fisher Scientific) and monensin (Cat #00-4505-51, Thermo Fisher Scientific) for 6 hr at a final concentration of 2 μM monensin and 3 μg/mL brefeldin after which they were collected and were processed for staining for flow cytometry.” left out

17β-estradiol [E2]
uterine wet weights [1]: increase
genes in the WNT5A and TCF4 pathways ([2]; E2 compared to placebo): differentially regulated
expression of Vegfa, Tgm2 and Tspo and Stat1 ([2]; myeloid cells from E2 treated tumors): increased expression
expression of classical ER target genes (Pgr and Cxc112) (YuMM5.2 cells): did not lead to changes
T cell (both CD4+ and CD8+) proliferation, CFSE dye dilution (CD3+ T cells): significantly inhibited
expression of IFNγ in CD8+ and CD4+ T cells (CD3+ T cells): decreased expression
expression of granzyme B (GZMB) in CD8+ and CD4+ T cells (CD3+ T cells): decreased expression

C[C@]12CC[C@@H]3c4ccc(O)cc4C[C@@H](CCCCCCCCC[S+]([O-])CCCC(F)(F)C(F)(F)F)[C@H]3[C@@H]1CC[C@@H]2O (some centres unmarked) [fulvestrant]
proliferation or cytotoxic capabilities of CD4+ or CD8+ T cells (CD4+ and CD8+ T cells): did not affect

Source: patent publication US20240398831A1, “COMPOSITIONS COMPRISING SMALL MOLECULE REGULATORS OF TUMOR IMMUNITY AND METHODS OF USING SAME” (Duke University, priority 2021, published 2024)
